Measurements taken from paper doi:10.1101/2022.05.04.490172v1 (biorxiv, 2022).
pKd: −log10 of the molar value. One block for each molecule: values may come before it.

What was measured:
[1] = molecular target: T1, BRN2 (POU3F2), purified BRN2^WT (Homo sapiens, UniProt P20265); assay: microscale thermophoresis; format: binding
T1 sequence (P20265 264-415): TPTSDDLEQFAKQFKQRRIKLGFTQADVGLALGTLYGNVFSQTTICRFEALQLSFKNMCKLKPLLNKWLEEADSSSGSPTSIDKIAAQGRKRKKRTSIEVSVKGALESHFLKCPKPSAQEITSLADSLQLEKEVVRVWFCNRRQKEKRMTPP

[2] = tested on: BRN2 (POU3F2), luciferase reporter assay; assay: cells; settings: for inhibition at 10 µM: read-out: % of Inhibition (Luciferase assay) / 10µM; for inhibition at 30 µM: read-out: % of Inhibition (Luciferase assay) / 30µM; for % of Inhibition (Luciferase assay) / 10µM / % of Inhibition (Luciferase assay) / 30µM: inhibitor

pKd [1]: 5.69
Structure (SMILES): Clc1ccc2cc(-c3csc(-c4ccc[nH]4)n3)oc2c1 [B18-94]

Structure (SMILES): Cn1c(-c2ccc(-c3ccccc3)o2)nc2ccccc21 [B18]
inhibition at 10 µM [2]: 97.6% | inhibition at 30 µM [2]: 99.4%

Structure (SMILES): Cc1cc(C(=O)Nc2ccccc2)c2ccccc2n1 [B-1]
inhibition at 10 µM [2]: 14.6% | inhibition at 30 µM [2]: 1.27%

Structure (SMILES): COc1ccc(CNc2ccc(C)cc2)c2ccccc12 [B-2]
inhibition at 10 µM [2]: 19.6% | inhibition at 30 µM [2]: 24.4%

Structure (SMILES): Oc1ccccc1/C=N\Nc1nc2ccccc2[nH]1 [B-3]
inhibition at 10 µM [2]: 69.2% | inhibition at 30 µM [2]: 75.5%

Structure (SMILES): Fc1ccc(Cl)cc1/C=N/Nc1nc2ccccc2s1 [B-4]
inhibition at 10 µM [2]: 19.5% | inhibition at 30 µM [2]: 71.4%

Structure (SMILES): Cc1cc(C(=O)Nc2cc(F)ccc2C)c2ccccc2n1 [B-5]
inhibition at 10 µM [2]: 4.75% | inhibition at 30 µM [2]: 9.07%

Structure (SMILES): O=C(Oc1cccc(F)c1)c1cccc2ccccc12 [B-6]
inhibition at 10 µM [2]: -6.6% | inhibition at 30 µM [2]: -58%

Structure (SMILES): O=C(Nc1ccc(F)cc1)c1ccccc1 [B-9]
inhibition at 10 µM [2]: -61.5% | inhibition at 30 µM [2]: -58.1%

Structure (SMILES): O=C(Nc1cc(Cl)cc(Cl)c1)c1ccccc1 [B-10]
% of Inhibition (Luciferase assay) / 10µM [2]: -70.87% | % of Inhibition (Luciferase assay) / 30µM [2]: 68.05%

Structure (SMILES): c1ccc(NCc2csc3ccccc23)cc1 [B-11]
inhibition at 10 µM [2]: -24.8% | inhibition at 30 µM [2]: -22.7%

Structure (SMILES): Cc1cccc(C(=O)Oc2cccc3ccccc23)c1 [B-12]
inhibition at 10 µM [2]: 5.02% | inhibition at 30 µM [2]: -8.87%

Structure (SMILES): O=C(Nc1cc(Cl)cc(Cl)c1)c1ccccc1 [B-13]
% of Inhibition (Luciferase assay) / 10µM [2]: -8.507% | % of Inhibition (Luciferase assay) / 30µM [2]: 43.29%

Structure (SMILES): Cc1cc(C(=O)Nc2cccc(Cl)c2)c2cc(F)ccc2n1 [B-14]
inhibition at 10 µM [2]: 41.6% | inhibition at 30 µM [2]: 32%

Structure (SMILES): O=C(CSc1nc2ccccc2[nH]1)c1ccccc1 [B-15]
inhibition at 10 µM [2]: -5% | inhibition at 30 µM [2]: 9.16%

Structure (SMILES): O=C(CSc1nc2ccccc2[nH]1)c1ccc(Cl)cc1 [B-16]
inhibition at 10 µM [2]: 20.8% | inhibition at 30 µM [2]: 44.7%

Structure (SMILES): COc1ccc(CNc2ccccc2)c2ccccc12 [B-17]
inhibition at 10 µM [2]: 3.97% | inhibition at 30 µM [2]: 12.2%

Structure (SMILES): Cc1ccc(NCc2c[nH]c3ccccc23)cc1 [B-19]
inhibition at 10 µM [2]: -4.93% | inhibition at 30 µM [2]: 62%

Structure (SMILES): C[C@@H]1Cc2ccccc2N1C(=O)c1cccc2ccccc12 [B-20]
inhibition at 10 µM [2]: 15.7% | inhibition at 30 µM [2]: 35.5%

Structure (SMILES): Oc1ccccc1/C=N/Nc1nc2ccccc2[nH]1 [B-21]
inhibition at 10 µM [2]: -1.45% | inhibition at 30 µM [2]: 24.8%

Structure (SMILES): O=C1c2ccccc2C(=O)N1c1nc(-c2ccccc2)cs1 [B-22]
inhibition at 10 µM [2]: -129% | inhibition at 30 µM [2]: -138%

Structure (SMILES): c1ccc([C@H]2COC(c3cccs3)=N2)cc1 [B-23]
inhibition at 10 µM [2]: -121% | inhibition at 30 µM [2]: -147%

Structure (SMILES): c1ccc(-c2csc(-c3ccccn3)n2)cc1 [B-24]
inhibition at 10 µM [2]: -145% | inhibition at 30 µM [2]: -67.1%

Structure (SMILES): c1ccc(-c2ccc(N3CCOCC3)s2)cc1 [B-25]
inhibition at 10 µM [2]: -2.68% | inhibition at 30 µM [2]: 51.5%

Structure (SMILES): Cc1ccc(-c2noc(-c3ccncc3)n2)cc1 [B-26]
inhibition at 10 µM [2]: -147% | inhibition at 30 µM [2]: -38.9%

Structure (SMILES): c1ccc(-c2nc(-c3cccnc3)no2)cc1 [B-27]
inhibition at 30 µM [2]: -166%

Structure (SMILES): c1cc(-c2noc(C3CCCCC3)n2)ccn1 [B-28]
inhibition at 10 µM [2]: -139% | inhibition at 30 µM [2]: -180%

Structure (SMILES): COc1ccc(O)c(/C=N/Nc2nc3ccccc3[nH]2)c1 [B-29]
inhibition at 10 µM [2]: -44.2% | inhibition at 30 µM [2]: 22.8%

Structure (SMILES): Oc1ccc(Cl)cc1/C=N/Nc1nc2ccccc2[nH]1 [B-30]
inhibition at 10 µM [2]: -6.38% | inhibition at 30 µM [2]: 28.1%

Structure (SMILES): Oc1c(Cl)cc(Cl)cc1/C=N/Nc1nc2ccccc2[nH]1 [B-31]
inhibition at 10 µM [2]: 22.6% | inhibition at 30 µM [2]: 12.7%

Structure (SMILES): c1ccc2c(c1)CCC/C2=N\Nc1nc2ccccc2[nH]1 [B-32]
inhibition at 10 µM [2]: 32.4% | inhibition at 30 µM [2]: 77.2%

Structure (SMILES): Cc1cc(C)c2c(c1)/C(=N/Nc1nc3ccccc3[nH]1)CCC2 [B-33]
inhibition at 10 µM [2]: 21.6% | inhibition at 30 µM [2]: 84.3%

Structure (SMILES): CC/C(=N\Nc1nc2ccccc2[nH]1)c1ccc(F)cc1 [B-34]
inhibition at 10 µM [2]: 33.1% | inhibition at 30 µM [2]: 80%

Structure (SMILES): CC/C(=N\Nc1nc2ccccc2[nH]1)c1ccc(O)cc1 [B-35]
inhibition at 10 µM [2]: 0.336% | inhibition at 30 µM [2]: 50.1%

Structure (SMILES): Cn1c(N/N=C2/CCc3c(O)cccc32)nc2ccccc21 [B-36]
inhibition at 10 µM [2]: -39.4% | inhibition at 30 µM [2]: 28.6%

Structure (SMILES): CC/C(=N/Nc1nc2ccccc2[nH]1)c1cccc(Cl)c1 [B-37]
inhibition at 10 µM [2]: 19.1% | inhibition at 30 µM [2]: 80.2%

Structure (SMILES): C/C(=N/Nc1nc2ccccc2[nH]1)c1ccc(C)cc1 [B-38]
inhibition at 10 µM [2]: 25.9% | inhibition at 30 µM [2]: 74.3%

Structure (SMILES): c1ccc2c(c1)CC/C2=N/Nc1ccc2ccccc2n1 [B-39]
inhibition at 10 µM [2]: 99.1% | inhibition at 30 µM [2]: 99.9%

Structure (SMILES): c1ccc2c(c1)C(=NNc1nc3ccccc3[nH]1)c1ccccc1-2 [B-40]
inhibition at 10 µM [2]: 93.2% | inhibition at 30 µM [2]: 98.8%

Structure (SMILES): C/C(=N/Nc1nc2ccccc2[nH]1)c1ccccc1Cl [B-41]
inhibition at 10 µM [2]: 18.8% | inhibition at 30 µM [2]: 74.1%

Structure (SMILES): C/C(=N/Nc1nc2ccccc2[nH]1)c1ccccc1O [B-42]
inhibition at 10 µM [2]: -3.59% | inhibition at 30 µM [2]: 66.8%

Structure (SMILES): Oc1ccc(/C=N/Nc2nc3ccccc3[nH]2)c(O)c1O [B-43]
inhibition at 10 µM [2]: 12.5% | inhibition at 30 µM [2]: -1.16%

Structure (SMILES): Oc1ccc(/C=N/Nc2nc3ccccc3[nH]2)cc1O [B-44]
inhibition at 10 µM [2]: 0.0894% | inhibition at 30 µM [2]: 66.2%

Structure (SMILES): C/C(=N\Nc1nc2ccccc2[nH]1)c1ccc2ccccc2c1O [B-45]
inhibition at 10 µM [2]: 77.2% | inhibition at 30 µM [2]: 91.8%

Structure (SMILES): C/C(=N\Nc1nc2ccccc2[nH]1)c1ccc(O)cc1 [B-46]
inhibition at 10 µM [2]: 6.41% | inhibition at 30 µM [2]: 46.7%

Structure (SMILES): Cc1ccccc1/C=N/Nc1nc2ccccc2[nH]1 [B-47]
inhibition at 10 µM [2]: -2.99% | inhibition at 30 µM [2]: 36.5%

Structure (SMILES): C/C(=N/Nc1nc2ccccc2[nH]1)c1ccc(F)cc1 [B-48]
inhibition at 10 µM [2]: -46.2% | inhibition at 30 µM [2]: -6.79%

Structure (SMILES): Oc1ccc(/C=N/Nc2nc3ccccc3[nH]2)c(O)c1 [B-49]
inhibition at 10 µM [2]: 46.1% | inhibition at 30 µM [2]: 70.8%

Structure (SMILES): Oc1ccc(/C=N/Nc2nc3ccccc3[nH]2)cc1 [B-50]
inhibition at 10 µM [2]: 66.3% | inhibition at 30 µM [2]: 72.1%

Structure (SMILES): Oc1ccc2ccccc2c1/C=N/Nc1nc2ccccc2[nH]1 [B-51]
inhibition at 10 µM [2]: -12.8% | inhibition at 30 µM [2]: 76.8%

Structure (SMILES): Oc1ccc(Br)cc1/C=N/Nc1nc2ccccc2[nH]1 [B-52]
inhibition at 10 µM [2]: 27.1% | inhibition at 30 µM [2]: 21.3%

Structure (SMILES): Oc1c(Br)cc(Br)cc1/C=N/Nc1nc2ccccc2[nH]1 [B-53]
inhibition at 10 µM [2]: -127% | inhibition at 30 µM [2]: -80.2%

Structure (SMILES): Oc1cccc(/C=N/Nc2nc3ccccc3[nH]2)c1 [B-54]
inhibition at 10 µM [2]: -45.1% | inhibition at 30 µM [2]: -34.4%

Structure (SMILES): Cc1ccc(-c2nc3ccccc3n2C)o1 [B-55]
inhibition at 10 µM [2]: -120% | inhibition at 30 µM [2]: -88.1%

Structure (SMILES): Cn1c(-c2ccc(CO)o2)nc2ccccc21 [B-56]
inhibition at 10 µM [2]: -114% | inhibition at 30 µM [2]: -134%

Structure (SMILES): Cn1c(-c2ccco2)nc2ccccc21 [B-57]
inhibition at 10 µM [2]: -138% | inhibition at 30 µM [2]: -172%

Structure (SMILES): C/C(=N\Nc1nc2ccccc2[nH]1)c1ccccc1 [B-58]
inhibition at 30 µM [2]: -58%

Structure (SMILES): Oc1cccc(/C=N/Nc2nc3ccccc3[nH]2)c1O [B-59]
inhibition at 30 µM [2]: -145%

Structure (SMILES): Cc1ccccc1/C=N\Nc1nc2ccccc2[nH]1 [B-60]
inhibition at 10 µM [2]: -23.8% | inhibition at 30 µM [2]: 25.5%

Structure (SMILES): COc1ccccc1/C=N\Nc1nc2ccccc2[nH]1 [B-61]
inhibition at 10 µM [2]: -172% | inhibition at 30 µM [2]: -70.4%

Structure (SMILES): Oc1ccc(/C=N\Nc2nc3ccccc3[nH]2)cc1Cl [B-62]
inhibition at 10 µM [2]: 88.2% | inhibition at 30 µM [2]: 91.6%

Structure (SMILES): Cc1ccc(-c2nc3cc(N)ccc3n2C)o1 [B-63]
inhibition at 10 µM [2]: 22% | inhibition at 30 µM [2]: 44%

Structure (SMILES): Cn1c(-c2ccco2)nc2cc(N)ccc21 [B-64]
inhibition at 10 µM [2]: 19% | inhibition at 30 µM [2]: 39%

Structure (SMILES): COc1ccc(/C=N\Nc2nc3ccccc3[nH]2)cc1O [B-65]
inhibition at 10 µM [2]: 31% | inhibition at 30 µM [2]: 51%

Structure (SMILES): c1ccc(-c2ccc(-c3nc4ccccc4[nH]3)o2)cc1 [B-66]
inhibition at 10 µM [2]: 11% | inhibition at 30 µM [2]: 48%

Structure (SMILES): Clc1ccc(-c2ccc(-c3nc4ccccc4[nH]3)o2)cc1Cl [B-67]
inhibition at 10 µM [2]: -99.2% | inhibition at 30 µM [2]: 74%

Structure (SMILES): Clc1ccccc1-c1ccc(-c2nc3ccccc3[nH]2)o1 [B-68]
inhibition at 10 µM [2]: 54.9% | inhibition at 30 µM [2]: 94.4%

Structure (SMILES): Brc1ccc(-c2ccc(-c3nc4ccccc4[nH]3)o2)c(Br)c1 [B-69]
inhibition at 10 µM [2]: 90% | inhibition at 30 µM [2]: 94%

Structure (SMILES): Clc1cc(Br)ccc1-c1ccc(-c2nc3ccccc3[nH]2)o1 [B-70]
inhibition at 10 µM [2]: 88.1% | inhibition at 30 µM [2]: 91.7%

Structure (SMILES): Clc1ccc(Cl)c(-c2ccc(-c3nc4ccccc4[nH]3)o2)c1 [B-71]
inhibition at 10 µM [2]: 46.2%

Structure (SMILES): Clc1cccc(-c2ccc(-c3nc4cc(Cl)ccc4[nH]3)o2)c1 [B-72]
inhibition at 10 µM [2]: -50.2% | inhibition at 30 µM [2]: 87.1%
